Results published in ChEMBL document CHEMBL1255357, “Enrichment of fluoroquinolone-resistant Staphylococcus aureus: oscillating ciprofloxacin concentrations simulated at the upper and lower portions of the mutant selection window” (Antimicrob Agents Chemother, 2008).
Calls of active or inactive are those of the source. No cut-off for these calls is given here.

Tests used:
Staphylococcus aureus [1] = experiment: Antimicrobial activity against methicillin-resistant Staphylococcus aureus ATCC 6538 assessed as mutant prevention concentration after 48 hrs; format: functional, organism-based
Staphylococcus aureus [2] = experiment: Antimicrobial activity against methicillin-resistant Staphylococcus aureus ATCC 43300 assessed as mutant prevention concentration after 48 hrs; format: functional, organism-based

## O=C(O)c1cn(C2CC2)c2cc(N3CCNCC3)c(F)cc2c1=O
Staphylococcus aureus [1]
  Activity: Active
Staphylococcus aureus [2]
  Activity: Active
